Laboratory results as given in PubChem BioAssay (NCI).
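Tested at 5 concentrations; 48 h exposure; 96-well plates; endpoints linearly interpolated, else capped at highest concentration. TGI denotes the concentration required for complete inhibition of growth.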

What was measured:
Test in all cases: growth of human tumour cells (NCI), 48 h
[1] = tested on: PC-3 prostate
[2] = tested on: CCRF-CEM leukemia
[3] = tested on: OVCAR-5 ovarian
[4] = tested on: UACC-62 melanoma
[5] = tested on: HCT-116 colon
[6] = tested on: LOX IMVI melanoma
[7] = tested on: SK-MEL-28 melanoma
[8] = tested on: COLO 205 colon
[9] = tested on: HCC-2998 colon
[10] = tested on: SN12C renal
[11] = tested on: A498 renal
[12] = tested on: HS 578T breast
[13] = tested on: UACC-257 melanoma
[14] = tested on: MDA-N
[15] = tested on: NCI/ADR-RES ovarian
[16] = tested on: OVCAR-8 ovarian
[17] = tested on: CAKI-1 renal
[18] = tested on: HCT-15 colon
[19] = tested on: T-47D breast
[20] = tested on: K-562 leukemia
[21] = tested on: SNB-19 CNS
[22] = tested on: IGROV1 ovarian
[23] = tested on: NCI-H460 lung
[24] = tested on: KM12 colon
[25] = tested on: SF-539 CNS
[26] = tested on: U251 CNS
[27] = tested on: SF-295 CNS
[28] = tested on: MOLT-4 leukemia
[29] = tested on: NCI-H226 lung
[30] = tested on: SK-MEL-5 melanoma
[31] = tested on: NCI-H23 lung
[32] = tested on: BT-549 breast
[33] = tested on: HL-60(TB) leukemia
[34] = tested on: NCI-H522 lung
[35] = tested on: ACHN renal
[36] = tested on: SW-620 colon
[37] = tested on: SF-268 CNS
[38] = tested on: MALME-3M melanoma
[39] = tested on: SNB-75 CNS
[40] = tested on: MCF7 breast
[41] = tested on: M14 melanoma
[42] = tested on: SR leukemia
[43] = tested on: HT29 colon
[44] = tested on: TK-10 renal
[45] = tested on: DU-145 prostate
[46] = tested on: MDA-MB-231 breast
[47] = tested on: RPMI-8226 leukemia
[48] = tested on: A549 NSCLC
[49] = tested on: RXF 393 renal
[50] = tested on: OVCAR-3 ovarian
[51] = tested on: HOP-92 NSCLC
[52] = tested on: SK-MEL-2 melanoma
[53] = tested on: MDA-MB-435
[54] = tested on: 786-0 renal
[55] = tested on: EKVX NSCLC
[56] = tested on: HOP-62 NSCLC
[57] = tested on: SK-OV-3 ovarian
[58] = tested on: UO-31 renal
[59] = tested on: OVCAR-4 ovarian

`CCCC1(N)CC(OC)OC(C)C1O` (stereo unspecified) showed a TGI [1] of over 100 µM, a TGI [2] of over 100 µM and a TGI [3] of over 100 µM. The TGI [4] was over 100 µM, the TGI [5] was over 100 µM and the TGI [6] was over 100 µM. The TGI [7] was over 100 µM, the TGI [8] was over 100 µM and the TGI [9] was over 100 µM. The TGI [10] was over 100 µM, the TGI [11] was over 100 µM and the TGI [12] was over 100 µM. The TGI [13] was over 100 µM, the TGI [14] was over 100 µM and the TGI [15] was over 100 µM. It also gave a TGI [16] of over 100 µM, a TGI [17] of over 100 µM and a TGI [18] of over 100 µM. For the same molecule, the TGI [19] was over 100 µM, the TGI [20] was over 100 µM and the TGI [21] was over 100 µM. For the same molecule, the TGI [22] was over 100 µM, the TGI [23] was over 100 µM and the TGI [24] was over 100 µM. The TGI [25] was over 100 µM, the TGI [26] was over 100 µM and the TGI [27] was over 100 µM. The TGI [28] was over 100 µM, the TGI [29] was over 100 µM and the TGI [30] was over 100 µM. The TGI [31] was over 100 µM, the TGI [32] was over 100 µM and the TGI [33] was over 100 µM. It also gave a TGI [34] of over 100 µM, a TGI [35] of over 100 µM and a TGI [36] of over 100 µM. It also gave a TGI [37] of over 100 µM, a TGI [38] of over 100 µM and a TGI [39] of over 100 µM. It also gave a TGI [40] of over 100 µM, a TGI [41] of over 100 µM and a TGI [42] of over 100 µM. For the same molecule, the TGI [43] was over 100 µM, the TGI [44] was over 100 µM and the TGI [45] was over 100 µM. For the same molecule, the TGI [46] was over 100 µM, the TGI [47] was over 100 µM and the TGI [48] was over 100 µM. It also gave a TGI [49] of over 100 µM, a TGI [50] of over 100 µM and a TGI [51] of over 100 µM. The TGI [52] was over 100 µM, the TGI [53] was over 100 µM and the TGI [54] was over 100 µM. It also gave a TGI [55] of over 100 µM, a TGI [56] of over 100 µM and a TGI [57] of over 100 µM. The TGI [58] was over 100 µM.
Work on `CCCCCCCCCCCCCCCCP(=O)([O-])OCC[N+](C)(C)C` yielded a TGI [1] of 8.66 µM, a TGI [2] of 24.7 µM and a TGI [3] of 21.8 µM. It also gave a TGI [4] of 29.3 µM, a TGI [5] of 28 µM and a TGI [6] of 29 µM. The TGI [7] was 33.8 µM, the TGI [8] was 20.5 µM and the TGI [9] was 22 µM. For the same molecule, the TGI [10] was 26.2 µM, the TGI [11] was 29.1 µM and the TGI [12] was 33.4 µM. The TGI [13] was 32.7 µM, the TGI [14] was 30 µM and the TGI [15] was 34.7 µM. For the same molecule, the TGI [16] was 32.7 µM, the TGI [17] was 25.4 µM and the TGI [18] was 16.7 µM. The TGI [19] was 35.5 µM, the TGI [20] was 35.7 µM and the TGI [21] was over 57.4 µM. For the same molecule, the TGI [22] was 7.2 µM, the TGI [23] was 18.8 µM and the TGI [24] was 9.33 µM. For the same molecule, the TGI [25] was 39.8 µM, the TGI [26] was 31.2 µM and the TGI [27] was 25.8 µM. It also gave a TGI [59] of 34.7 µM, a TGI [28] of 33.4 µM and a TGI [29] of 40.9 µM. For the same molecule, the TGI [30] was 30 µM, the TGI [31] was 40 µM and the TGI [32] was 22.6 µM. It also gave a TGI [33] of 17.9 µM, a TGI [34] of 42.6 µM and a TGI [35] of 31.9 µM. It also gave a TGI [36] of 29.7 µM, a TGI [37] of 34.1 µM and a TGI [38] of 36.6 µM. For the same molecule, the TGI [39] was 29 µM, the TGI [40] was 35.3 µM and the TGI [41] was 28.9 µM. It also gave a TGI [42] of 29.4 µM, a TGI [43] of 25.5 µM and a TGI [44] of 3.51 µM. For the same molecule, the TGI [45] was 28.3 µM, the TGI [46] was 35.2 µM and the TGI [47] was 34.2 µM. It also gave a TGI [48] of 32.9 µM, a TGI [49] of 15 µM and a TGI [50] of 31.6 µM. The TGI [51] was 29 µM, the TGI [52] was 31.5 µM and the TGI [53] was 34.2 µM. It also gave a TGI [54] of 19.9 µM, a TGI [55] of 39.1 µM and a TGI [56] of 31 µM. For the same molecule, the TGI [57] was 24.6 µM and the TGI [58] was 28.2 µM.
Molecule `CSC1=C(C(=O)Nc2ccccc2)C(N)=NC1=O` has a TGI [1] of over 100 µM, a TGI [2] of over 100 µM and a TGI [4] of over 100 µM. It also gave a TGI [5] of over 100 µM, a TGI [6] of over 100 µM and a TGI [7] of over 100 µM. It also gave a TGI [8] of over 100 µM, a TGI [9] of over 100 µM and a TGI [10] of over 100 µM. For the same molecule, the TGI [11] was over 100 µM, the TGI [12] was over 100 µM and the TGI [13] was over 100 µM. The TGI [14] was over 100 µM, the TGI [15] was over 100 µM and the TGI [16] was over 100 µM. For the same molecule, the TGI [17] was over 100 µM, the TGI [18] was over 100 µM and the TGI [19] was over 100 µM. It also gave a TGI [20] of over 100 µM, a TGI [21] of over 100 µM and a TGI [23] of over 100 µM. It also gave a TGI [24] of over 100 µM, a TGI [25] of over 100 µM and a TGI [26] of over 100 µM. For the same molecule, the TGI [59] was over 100 µM, the TGI [28] was over 100 µM and the TGI [29] was over 100 µM. For the same molecule, the TGI [30] was over 100 µM, the TGI [31] was over 100 µM and the TGI [32] was over 100 µM. It also gave a TGI [33] of over 100 µM, a TGI [34] of over 100 µM and a TGI [36] of over 100 µM. It also gave a TGI [37] of over 100 µM, a TGI [38] of over 100 µM and a TGI [39] of over 100 µM. For the same molecule, the TGI [40] was over 100 µM, the TGI [42] was over 100 µM and the TGI [43] was over 100 µM. It also gave a TGI [44] of over 100 µM, a TGI [45] of over 100 µM and a TGI [46] of over 100 µM. It also gave a TGI [47] of over 100 µM, a TGI [48] of over 100 µM and a TGI [49] of over 100 µM. For the same molecule, the TGI [52] was over 100 µM, the TGI [53] was over 100 µM and the TGI [54] was over 100 µM. The TGI [55] was over 100 µM, the TGI [57] was over 100 µM and the TGI [58] was over 100 µM.
Molecule `O=C1c2cc([N+](=O)[O-])sc2C(=O)c2ccsc21` has a TGI [1] of 1.8 µM, a TGI [2] of 0.227 µM and a TGI [3] of 3.22 µM. For the same molecule, the TGI [4] was 0.433 µM, the TGI [5] was 0.816 µM and the TGI [6] was 0.225 µM. It also gave a TGI [7] of 0.555 µM, a TGI [8] of 1.66 µM and a TGI [9] of 1.7 µM. For the same molecule, the TGI [10] was 1.33 µM, the TGI [11] was 4.37 µM and the TGI [12] was 1.85 µM. The TGI [13] was 0.641 µM, the TGI [14] was 0.378 µM and the TGI [15] was 2.78 µM. For the same molecule, the TGI [16] was 2.01 µM, the TGI [17] was 2.55 µM and the TGI [18] was 0.815 µM. It also gave a TGI [19] of 1.53 µM, a TGI [20] of 0.191 µM and a TGI [21] of 3.33 µM. For the same molecule, the TGI [22] was 0.878 µM, the TGI [23] was 0.853 µM and the TGI [24] was 1.77 µM. It also gave a TGI [25] of 0.938 µM, a TGI [26] of 0.373 µM and a TGI [27] of 0.993 µM. It also gave a TGI [59] of 0.947 µM, a TGI [28] of 0.456 µM and a TGI [29] of 3.09 µM. It also gave a TGI [30] of 0.336 µM, a TGI [31] of 1.15 µM and a TGI [32] of 1.27 µM. It also gave a TGI [34] of 0.379 µM, a TGI [35] of 0.768 µM and a TGI [36] of 0.779 µM. The TGI [37] was 1.06 µM, the TGI [38] was 0.327 µM and the TGI [39] was 2.71 µM. For the same molecule, the TGI [40] was 0.69 µM, the TGI [41] was 0.663 µM and the TGI [42] was under 0.0235 µM. It also gave a TGI [43] of 1.48 µM, a TGI [44] of 1.99 µM and a TGI [45] of 0.674 µM. The TGI [46] was 1.15 µM, the TGI [47] was 0.751 µM and the TGI [48] was 3.51 µM. It also gave a TGI [49] of 1.05 µM, a TGI [50] of 0.209 µM and a TGI [51] of 0.443 µM. It also gave a TGI [52] of 3.11 µM, a TGI [53] of 0.334 µM and a TGI [54] of 0.948 µM. It also gave a TGI [55] of 3.01 µM, a TGI [56] of 0.486 µM and a TGI [57] of 2.95 µM. For the same molecule, the TGI [58] was 2.59 µM.
